According to PubChem BioAssay (NCI):
Values joined by “and” are separate entries in the source; they are usually repeats but may differ in a detail not shown here. Equal entries are not always repeated.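 Cells were grown in 96-well plates and exposed to each compound for 48 hours at five concentrations; endpoints were interpolated linearly between bracketing concentrations, or set to the highest concentration if not reached. Definition used: TGI = concentration required for complete inhibition of growth.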

What was measured:
Test in all cases: DTP human tumour cell line panel, 48 h
HOP-62 NSCLC = test system: HOP-62 NSCLC
IGROV1 ovarian = test system: IGROV1 ovarian
U251 CNS = test system: U251 CNS
TK-10 renal = test system: TK-10 renal
SF-295 CNS = test system: SF-295 CNS
RXF 393 renal = test system: RXF 393 renal
SK-MEL-5 melanoma = test system: SK-MEL-5 melanoma
OVCAR-4 ovarian = test system: OVCAR-4 ovarian
SR leukemia = test system: SR leukemia
SNB-78 CNS = test system: SNB-78 CNS
M14 melanoma = test system: M14 melanoma
SF-539 CNS = test system: SF-539 CNS
MALME-3M melanoma = test system: MALME-3M melanoma
COLO 205 colon = test system: COLO 205 colon
HCC-2998 colon = test system: HCC-2998 colon
LOX IMVI melanoma = test system: LOX IMVI melanoma
NCI-H226 lung = test system: NCI-H226 lung
DMS 273 small cell lung = test system: DMS 273 small cell lung
UACC-62 melanoma = test system: UACC-62 melanoma
SNB-19 CNS = test system: SNB-19 CNS
XF 498 CNS = test system: XF 498 CNS
OVCAR-8 ovarian = test system: OVCAR-8 ovarian
SNB-75 CNS = test system: SNB-75 CNS
NCI-H23 lung = test system: NCI-H23 lung
HOP-92 NSCLC = test system: HOP-92 NSCLC
SF-268 CNS = test system: SF-268 CNS
SK-MEL-2 melanoma = test system: SK-MEL-2 melanoma
A549 NSCLC = test system: A549 NSCLC
SK-MEL-28 melanoma = test system: SK-MEL-28 melanoma
UO-31 renal = test system: UO-31 renal
K-562 leukemia = test system: K-562 leukemia
HT29 colon = test system: HT29 colon
KM12 colon = test system: KM12 colon
CCRF-CEM leukemia = test system: CCRF-CEM leukemia
SK-OV-3 ovarian = test system: SK-OV-3 ovarian
SW-620 colon = test system: SW-620 colon
MOLT-4 leukemia = test system: MOLT-4 leukemia
OVCAR-5 ovarian = test system: OVCAR-5 ovarian
EKVX NSCLC = test system: EKVX NSCLC
CAKI-1 renal = test system: CAKI-1 renal
NCI-H522 lung = test system: NCI-H522 lung
NCI-H460 lung = test system: NCI-H460 lung
DLD-1 colon = test system: DLD-1 colon
HCT-116 colon = test system: HCT-116 colon
DMS 114 small cell lung = test system: DMS 114 small cell lung
OVCAR-3 ovarian = test system: OVCAR-3 ovarian
M19-MEL melanoma = test system: M19-MEL melanoma
MDA-MB-435 = test system: MDA-MB-435
HCT-15 colon = test system: HCT-15 colon
A498 renal = test system: A498 renal
MDA-MB-231 breast = test system: MDA-MB-231 breast
T-47D breast = test system: T-47D breast
UACC-257 melanoma = test system: UACC-257 melanoma
SN12C renal = test system: SN12C renal
MDA-N = test system: MDA-N
RPMI-8226 leukemia = test system: RPMI-8226 leukemia
BT-549 breast = test system: BT-549 breast
HL-60(TB) leukemia = test system: HL-60(TB) leukemia
MCF7 breast = test system: MCF7 breast
DU-145 prostate = test system: DU-145 prostate
NCI/ADR-RES ovarian = test system: NCI/ADR-RES ovarian
HS 578T breast = test system: HS 578T breast
PC-3 prostate = test system: PC-3 prostate
ACHN renal = test system: ACHN renal
786-0 renal = test system: 786-0 renal

Question: What does the source list for `C=CCN1C(=O)NC(=O)/C(=C/c2c3ccccc3cc3ccccc23)C1=O`?
Answer: TGI (HOP-62 NSCLC): 33.2 µM; TGI (IGROV1 ovarian): > 10 µM; TGI (U251 CNS): 36.5 µM; TGI (TK-10 renal): 37.4 µM; TGI (SF-295 CNS): 38.3 µM; TGI (RXF 393 renal): 34.6 µM; TGI (SK-MEL-5 melanoma): > 10 µM; TGI (OVCAR-4 ovarian): 47.5 µM; TGI (SR leukemia): 74 µM; TGI (SNB-78 CNS): > 100 µM; TGI (M14 melanoma): 37.2 µM; TGI (SF-539 CNS): 38.1 µM; TGI (MALME-3M melanoma): 39.3 µM; TGI (COLO 205 colon): 35.3 µM; TGI (HCC-2998 colon): 28.4 µM; TGI (LOX IMVI melanoma): 75.4 µM; TGI (NCI-H226 lung): 45.9 µM; TGI (DMS 273 small cell lung): 43.4 µM; TGI (UACC-62 melanoma): 50.4 µM; TGI (SNB-19 CNS): 47.7 µM; TGI (XF 498 CNS): 40.7 µM; TGI (OVCAR-8 ovarian): 55 µM; TGI (SNB-75 CNS): 45 µM; TGI (NCI-H23 lung): > 10 µM; TGI (HOP-92 NSCLC): 54.4 µM; TGI (SF-268 CNS): 60.8 µM; TGI (SK-MEL-2 melanoma): 38.7 µM; TGI (A549 NSCLC): 58.2 µM; TGI (SK-MEL-28 melanoma): 68.1 µM; TGI (UO-31 renal): 37 µM; TGI (K-562 leukemia): 66.5 µM; TGI (HT29 colon): 37.9 µM; TGI (KM12 colon): 31.8 µM; TGI (CCRF-CEM leukemia): > 100 µM; TGI (SK-OV-3 ovarian): 66 µM; TGI (SW-620 colon): > 100 µM; TGI (MOLT-4 leukemia): 48.9 µM; TGI (OVCAR-5 ovarian): 44.4 µM; TGI (EKVX NSCLC): 48.8 µM; TGI (CAKI-1 renal): 40.3 µM; TGI (NCI-H522 lung): 44.8 µM; TGI (NCI-H460 lung): 37 µM; TGI (DLD-1 colon): 44.7 µM; TGI (HCT-116 colon): 30.8 µM; TGI (DMS 114 small cell lung): 45.2 µM; TGI (OVCAR-3 ovarian): 42.3 µM; TGI (M19-MEL melanoma): > 100 µM

Question: Which results are given for `N=C(N)SCc1ccc(Cl)c2ccccc12` (tested in a mixture with another compound)?
Answer: TGI (HOP-62 NSCLC): 24.3 µM and 30.5 µM; TGI (IGROV1 ovarian): 29 µM and 30.8 µM; TGI (U251 CNS): 25.7 µM and 23.6 µM; TGI (TK-10 renal): 20.9 µM and 19.7 µM; TGI (SF-295 CNS): 24.9 µM and 23.7 µM; TGI (RXF 393 renal): 20.5 µM and 22.7 µM; TGI (SK-MEL-5 melanoma): 25.6 µM and 21.6 µM; TGI (OVCAR-4 ovarian): 15.9 µM and 24.9 µM; TGI (SR leukemia): 22.8 µM and 8.03 µM; TGI (MDA-MB-435): 21.5 µM and 22.2 µM; TGI (M14 melanoma): 23.8 µM and 26.5 µM; TGI (SF-539 CNS): 23.1 µM and 20.4 µM; TGI (HCT-15 colon): 32.8 µM and 36.8 µM; TGI (A498 renal): 22.5 µM and 23.2 µM; TGI (MDA-MB-231 breast): 21.9 µM and 27.8 µM; TGI (T-47D breast): 18.3 µM and 21.7 µM; TGI (MALME-3M melanoma): 22.1 µM and 23.4 µM; TGI (COLO 205 colon): 23.9 µM and 19.9 µM; TGI (UACC-257 melanoma): 13.8 µM and 12.9 µM; TGI (HCC-2998 colon): 6.66 µM and 4.89 µM; TGI (SN12C renal): 24.3 µM and 24.9 µM; TGI (MDA-N): 23.4 µM and 24.8 µM; TGI (LOX IMVI melanoma): 33.1 µM and 36.6 µM; TGI (NCI-H226 lung): 30.3 µM and 28.6 µM; TGI (RPMI-8226 leukemia): 18.5 µM and 7.98 µM; TGI (UACC-62 melanoma): 26.4 µM and 25.6 µM; TGI (BT-549 breast): 29.5 µM and 30.8 µM; TGI (SNB-19 CNS): 28.4 µM and 31.6 µM; TGI (HL-60(TB) leukemia): 12.6 µM and 17.8 µM; TGI (OVCAR-8 ovarian): 50.1 µM and > 77.8 µM; TGI (SNB-75 CNS): 23.1 µM and 19.2 µM; TGI (NCI-H23 lung): 29 µM and 29.2 µM; TGI (HOP-92 NSCLC): 32.2 µM and 24.9 µM; TGI (SF-268 CNS): 33.3 µM and 33.5 µM; TGI (SK-MEL-2 melanoma): 21.7 µM and 25.1 µM; TGI (MCF7 breast): 24.7 µM and 27.9 µM; TGI (A549 NSCLC): 31.3 µM and 35.5 µM; TGI (SK-MEL-28 melanoma): 28.1 µM and 25.6 µM; TGI (UO-31 renal): 24.3 µM and 26.3 µM; TGI (K-562 leukemia): 19.4 µM and 10.1 µM; TGI (HT29 colon): 24.2 µM and 26.4 µM; TGI (KM12 colon): 28.3 µM and 27.7 µM; TGI (DU-145 prostate): 27.7 µM and 25.9 µM; TGI (CCRF-CEM leukemia): 26.4 µM and 17.4 µM; TGI (NCI/ADR-RES ovarian): 48.1 µM and 55.2 µM; TGI (SK-OV-3 ovarian): 25.9 µM and 28.9 µM; TGI (SW-620 colon): 28.5 µM and 27.6 µM; TGI (MOLT-4 leukemia): 17.3 µM and 4.25 µM; TGI (OVCAR-5 ovarian): 26.8 µM and 27.6 µM; TGI (EKVX NSCLC): 24.5 µM and 27.5 µM; TGI (HS 578T breast): 48.1 µM and 53 µM; TGI (PC-3 prostate): 24.3 µM and 25.3 µM; TGI (CAKI-1 renal): 19.2 µM and 24.4 µM; TGI (NCI-H522 lung): 18.7 µM and 23.9 µM; TGI (NCI-H460 lung): 22.4 µM and 21 µM; TGI (HCT-116 colon): 24.5 µM and 28.2 µM; TGI (OVCAR-3 ovarian): 23.6 µM and 25 µM; TGI (ACHN renal): 25.1 µM and 25.8 µM; TGI (786-0 renal): 23.9 µM and 27.2 µM
